Patent publication US7071167B2 (L'Oreal, priority 2002, dated 2006)
Values joined by “and” are separate entries in the source; they are usually repeats but may differ in a detail not shown here. Equal values may be shown once.

Test system: Ca^2+ channel (L, verapamil site)
Assay: Equilibrium binding competition on type-L calcium channels, verapamil site ([3H](-)D 888 displacement)
Set-up: species or system rat
Details: for Mean % of binding / % of binding / Mean % of inhibition: Argireline 1.0%, magnesium gluconate 1 × 10^−4 M, combination 1 × 10^−4 M/1.0%; for % of binding: individual determinations, specific binding of 0.5 nM (3H)(-)D 888, rat cerebral cortex homogenates; for Mean % of inhibition: inhibition of specific binding
Protocol: The studies were performed using rat cerebral cortex homogenates (isolated membranes having type-L calcium channels at their surface).
The principle of an equilibrium displacement experiment includes measuring the specific binding at equilibrium, of a given concentration of radiolabelled ligand in the presence of a variable and increasing concentration of cold ligand. The cold ligand enters into competition with the radioactive ligand for its binding to the receptor; this is why this may be termed binding competition at equilibrium.
The experimental conditions according to the protocol described by Reynolds, I. J. et al., J. Pharmacol. Exp. Ther., vol. 237, p.
D 888 and D 600 are the reference molecules specific for the type-L calcium channels, verapamil site.
The specific binding of a ligand (labelled D 888) to the receptors (type-L calcium channels, verapamil site) is defined as the difference between the total binding and the […] determined in the presence of an excess of cold ligand. The results are expressed as a percentage of specific binding and as a percentage of inhibition of specific binding in the presence of the test compounds (Argireline®).

Substance	Mean % of binding	% of binding	Mean % of inhibition	effect on the type-L calcium channels, verapamil site (in words) (used alone at concentrations of 1×10^−6 M to 1×10^−4 M)	mean percentage of inhibition (Argireline at 5%)	mean percentage of inhibition (Argireline at 10%)
Magnesium gluconate	94.0%	93.8% and 95.2% and 93.0%	6%	moderate effects		
Acetyl glutamyl-glutamyl-methionyl-glutaminyl-arginyl-arginylamide (Ac-EEMQRR-NH2) [Argireline ®, supplied at 0.05% in water]	96.1%	95.1% and 93.1% and 99.9%	4%		36%	52%
